According to publication PMC7725003, “Systematically Studying the Optimal Amino Acid Distribution Patterns of the Amphiphilic Structure by Using the Ultrashort Amphiphiles” (Frontiers in Microbiology, 2020):
Where no end group is shown, it is not given here.

Key:
[1] = system: MRSA 43300; format: cell-based, methicillin-resistant S. aureus; conditions: 43300, 24 h
Protocol: (§1) The antimicrobial activities of the peptides were measured using a method adapted from the National Committee for Clinical Laboratory Standards (NCCLS) with some modifications ([Chou et al., 2016]). The specific procedure for these assays has been previously described. In brief, the bacterial cells were grown to a mid-logarithmic phase and diluted in MHB to an ultimate concentration of 0.5–1 × 10^6 CFU mL^–1. Subsequently, the peptides were consecutively diluted in a 0.2% BSA solution and then added to a bacterial solution in a 96-well plate at identical volumes. After incubation for 24 h at 37°C, the MICs were determined to be the lowest peptide concentration that inhibited 95% of the bacterial growth by monitoring the absorbance at 492 nm using a microplate reader. Subsequently, 50 μL of each incubation mixture was further transferred to agar plates and incubated overnight. The minimum bactericidal concentrations (MBCs) were determined as the lowest peptide concentration that killed greater than 99.9% of the bacterial cells. Every assay was reproduced more than 3 times.

[2] = system: S. epidermidis 12228; format: cell-based, Staphylococcus epidermidis; conditions: 12228, 24 h
Protocol: as §1

[3] = system: S. pullorum 7913; format: cell-based, Salmonella pullorum; conditions: 7913, 24 h
Protocol: as §1

[4] = system: E. faecalis 29212; format: cell-based, Enterococcus faecalis; conditions: 29212, 24 h
Protocol: as §1

[5] = system: P. aeruginosa 27853; format: cell-based, Pseudomonas aeruginosa; conditions: 27853, 24 h
Protocol: as §1

[6] = system: B. subtilis 63501; format: cell-based, Bacillus subtilis; conditions: 63501, 24 h
Protocol: as §1

[7] = system: Gram-negative bacteria
Protocol: (§2) The antimicrobial activity of AMPs is the most decisive index for evaluating the clinical application of antimicrobial drugs.
as §1, with “The minimum bactericidal concentrations (MBCs) were determined as the lowest peptide concentration that killed greater than 99.9% of the bacterial cells.” left out

[8] = system: Gram-positive bacteria
Protocol: as §2
as §1, with “The minimum bactericidal concentrations (MBCs) were determined as the lowest peptide concentration that killed greater than 99.9% of the bacterial cells.” left out

[9] = system: S. aureus 25923; format: cell-based, Staphylococcus aureus; conditions: 25923, 24 h
Protocol: as §1

[10] = system: S. aureus 29213; format: cell-based, Staphylococcus aureus; conditions: 29213, 24 h
Protocol: as §1

[11] = system: S. aureus 29213; assay: Salt sensitivity assay (MIC); format: cell-based, Staphylococcus aureus
Protocol: as §1
(§3) The salt sensitivities of the peptides were determined. E. coli ATCC 25922 and S. aureus ATCC 29213 were incubated in the presence of various ultimate concentrations of physiological salts (150 mM NaCl, 4.5 mM KCl, 6 μM NH4Cl, 8 μM ZnCl2, 1 mM MgCl2, 2mM CaCl2, and 4 μM FeCl3) according to our previous protocol ([Yang et al., 2019]). These tests were performed under the MICs, and three independent assays were performed.

[12] = system: E. coli UB1005; format: cell-based, Escherichia coli; conditions: UB1005, 24 h
Protocol: as §1

[13] = system: E. coli 25922; format: cell-based, Escherichia coli; conditions: 25922, 24 h
Protocol: as §1

[14] = system: E. coli O78; format: cell-based, Escherichia coli; conditions: O78, 24 h
Protocol: as §1

[15] = system: all of the tested bacterial strains; assay: Geometric mean of MICs, all tested bacterial strains; format: cell-based
Source text: The antimicrobial activity of AMPs is the most decisive index for evaluating the clinical application of antimicrobial drugs. Many antimicrobial agents inhibit bacterial growth rather than kill the bacteria quickly, and long-term infections are pathogens that are not completely killed, which results in bacterial severe drug resistance. […] The geometric mean (GM) values of the MICs/MBCs of the two series across all of the tested bacterial strains are represented in Table 3, which depicts the average bacteriostatic/bactericidal level of a peptide.
as §1

[16] = system: S. typhimurium 7731; format: cell-based, Salmonella typhimurium; conditions: 7731, 24 h
Protocol: as §1

[17] = system: S. typhimurium 14028; format: cell-based, Salmonella typhimurium; conditions: 14028, 24 h
Protocol: as §1

[18] = system: Listeria monocytogenes CGMCC 1.1075; format: cell-based; conditions: CGMCC 1.1075, 24 h
Protocol: as §1

[19] = system: E. coli ATCC 25922; assay: Salt sensitivity assay (MIC); format: cell-based, Escherichia coli
Protocol: as §1, §3

[20] = geometric mean of MICs (Table 3)
[21] = therapeutic index TI = MHC/GM MIC
[22] = no added salt, three independent assays

Substance: WRRRRWWWW-NH2 [W11]
- MBC [1]: 4 µM
- MIC [1]: 2 µM
- MBC [2]: 4 µM
- MIC [2]: 2 µM
- MBC [3]: 8 µM
- MIC [3]: 4 µM
- MBC [4]: 8 µM
- MIC [4]: 4 µM
- MBC [5]: 16 µM
- MIC [5]: 8 µM
- MBC [6]: 2 µM
- MIC [6]: 1 µM
- GM, Gram-negative bacteria [7, 20]: 5.88 µM
- TI, Gram-negative bacteria [7, 21]: 43.54
- GM, Gram-positive bacteria [8, 20]: 2.21 µM
- TI, Gram-positive bacteria [8, 21]: 115.84
- MBC [9]: 4 µM
- MIC [9]: 2 µM
- MBC [10]: 4 µM
- MIC [10]: 2 µM
- MIC, FeCl3 ([11]; 4 μM FeCl3): 2 µM
- MIC, NH4Cl ([11]; 6 μM NH4Cl): 1 µM
- MIC, ZnCl2 ([11]; 8 μM ZnCl2): 2 µM
- MIC, MgCl2 ([11]; 1 mM MgCl2): 2 µM
- MIC, CaCl2 ([11]; 2 mM CaCl2): 2 µM
- MIC, KCl ([11]; 4.5 mM KCl): 1 µM
- MIC, NaCl ([11]; 150 mM NaCl): 2 µM
- MIC, Control [11, 22]: 2 µM
- MBC [12]: 8 µM
- MIC [12]: 4 µM
- MBC [13]: 8 µM
- MIC [13]: 4 µM
- MBC [14]: 16 µM
- MIC [14]: 8 µM
- GM, All ([15]; geometric mean of MICs across all tested strains): 3.83 µM
- TI, All [15, 21]: 66.84
- MBC [16]: 16 µM
- MIC [16]: 8 µM
- MBC [17]: 16 µM
- MIC [17]: 8 µM
- MBC [18]: 8 µM
- MIC [18]: 4 µM
- MIC, FeCl3 ([19]; 4 μM FeCl3): 4 µM
- MIC, NH4Cl ([19]; 6 μM NH4Cl): 2 µM
- MIC, ZnCl2 ([19]; 8 μM ZnCl2): 2 µM
- MIC, MgCl2 ([19]; 1 mM MgCl2): 8 µM
- MIC, CaCl2 ([19]; 2 mM CaCl2): 16 µM
- MIC, KCl ([19]; 4.5 mM KCl): 8 µM
- MIC, NaCl ([19]; 150 mM NaCl): 8 µM
- MIC, Control [19, 22]: 4 µM
